From the kinase profiling compilation of Christmann-Franck et al. (2016)
Values joined by “and” are separate entries in the source; they are usually repeats but may differ in a detail not shown here. Equal entries are not always repeated.

How the values were obtained:
Test in all cases: radiometric filter-binding kinase assay, Kinase HotSpot
Conditions in all cases: compound 0.5 µM; ATP 10 µM
[1] = biological target: ACVRL1 (human) (UniProt P37023)
[2] = biological target: AKT3 (human) (UniProt Q9Y243)
[3] = biological target: CAMK4 (human) (UniProt Q16566)
[4] = biological target: CDK1 CCNB1 (human) (UniProt P06493+P14635)
[5] = biological target: CDK2 CCNA2 (human) (UniProt P24941+P20248)
[6] = biological target: CDK3 CCNE1 (human) (UniProt Q00526+P24864)
[7] = biological target: CDK4 CCND1 (human) (UniProt P24385+P11802)
[8] = biological target: CHEK2 (human) (UniProt O96017)
[9] = biological target: CLK4 (human) (UniProt Q9HAZ1)
[10] = biological target: CSF1R (human) (UniProt P07333)
[11] = biological target: CSNK1G2 (human) (UniProt P78368)
[12] = biological target: CSNK2A2 (human) (UniProt P19784)
[13] = biological target: DYRK3 (human) (UniProt O43781)
[14] = biological target: EPHA7 (human) (UniProt Q15375)
[15] = biological target: EPHA8 (human) (UniProt P29322)
[16] = biological target: EPHB2 (human) (UniProt P29323)
[17] = biological target: FER (human) (UniProt P16591)
[18] = biological target: IRAK1 (human) (UniProt P51617)
[19] = biological target: LYN (human) (UniProt P07948)
[20] = system: MAP2K6 (human), P52564 [S207E/T211E]
[21] = biological target: MAP3K5 (human) (UniProt Q99683)
[22] = biological target: MAPK1 (human) (UniProt P28482)
[23] = biological target: MARK2 (human) (UniProt Q7KZI7)
[24] = biological target: MUSK (human) (UniProt O15146)
[25] = biological target: NUAK1 (human) (UniProt O60285)
[26] = biological target: PAK3 (human) (UniProt O75914)
[27] = biological target: PAK7 (human) (UniProt Q9P286)
[28] = biological target: PBK (human) (UniProt Q96KB5)
[29] = biological target: PHKG2 (human) (UniProt P15735)
[30] = biological target: PLK2 (human) (UniProt Q9NYY3)
[31] = biological target: PRKG2 (human) (UniProt Q13237)
[32] = biological target: PRKX (human) (UniProt P51817)
[33] = biological target: ROS1 (human) (UniProt P08922)
[34] = biological target: RPS6KA2 KD1 KD2 (human) (UniProt Q15349)
[35] = biological target: SRMS (human) (UniProt Q9H3Y6)
[36] = biological target: STK3 (human) (UniProt Q13188)
[37] = biological target: STK39 (human) (UniProt Q9UEW8)
[38] = biological target: TAOK1 (human) (UniProt Q7L7X3)
[39] = biological target: TEK (human) (UniProt Q02763)
[40] = biological target: TGFBR1 (human) (UniProt P36897)
[41] = biological target: TYRO3 (human) (UniProt Q06418)
[42] = biological target: ULK1 (human) (UniProt O75385)

LYN (human), sequence (P07948 whole entry, looked up): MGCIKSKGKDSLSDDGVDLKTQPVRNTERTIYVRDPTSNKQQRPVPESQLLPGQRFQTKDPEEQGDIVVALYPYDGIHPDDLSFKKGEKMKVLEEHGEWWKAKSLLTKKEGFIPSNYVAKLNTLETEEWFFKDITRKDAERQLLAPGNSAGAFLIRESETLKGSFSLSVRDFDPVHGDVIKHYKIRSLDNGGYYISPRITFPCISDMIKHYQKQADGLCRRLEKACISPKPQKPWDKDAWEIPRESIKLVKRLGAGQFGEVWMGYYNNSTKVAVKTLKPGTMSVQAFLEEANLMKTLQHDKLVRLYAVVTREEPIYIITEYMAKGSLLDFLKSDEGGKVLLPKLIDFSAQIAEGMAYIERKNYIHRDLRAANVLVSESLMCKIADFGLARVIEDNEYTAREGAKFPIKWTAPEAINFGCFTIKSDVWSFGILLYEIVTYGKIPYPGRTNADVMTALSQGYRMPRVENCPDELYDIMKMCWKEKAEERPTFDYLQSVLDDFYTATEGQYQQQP
PAK3 (human), sequence (O75914 whole entry, looked up): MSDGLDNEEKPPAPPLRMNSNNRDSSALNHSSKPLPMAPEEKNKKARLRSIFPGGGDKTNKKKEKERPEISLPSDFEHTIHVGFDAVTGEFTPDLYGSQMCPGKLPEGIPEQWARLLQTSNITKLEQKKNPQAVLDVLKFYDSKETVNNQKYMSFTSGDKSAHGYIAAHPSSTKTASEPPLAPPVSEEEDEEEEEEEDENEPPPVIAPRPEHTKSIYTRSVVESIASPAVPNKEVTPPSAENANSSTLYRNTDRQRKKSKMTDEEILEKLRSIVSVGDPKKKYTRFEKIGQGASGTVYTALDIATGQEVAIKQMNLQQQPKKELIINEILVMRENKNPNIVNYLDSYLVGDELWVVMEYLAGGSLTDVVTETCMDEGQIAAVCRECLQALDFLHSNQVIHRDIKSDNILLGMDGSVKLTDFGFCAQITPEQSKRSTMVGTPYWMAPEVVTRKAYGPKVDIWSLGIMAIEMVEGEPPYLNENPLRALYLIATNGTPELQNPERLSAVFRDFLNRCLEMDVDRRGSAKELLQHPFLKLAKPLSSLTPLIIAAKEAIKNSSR
TGFBR1 (human), sequence (P36897 whole entry, looked up): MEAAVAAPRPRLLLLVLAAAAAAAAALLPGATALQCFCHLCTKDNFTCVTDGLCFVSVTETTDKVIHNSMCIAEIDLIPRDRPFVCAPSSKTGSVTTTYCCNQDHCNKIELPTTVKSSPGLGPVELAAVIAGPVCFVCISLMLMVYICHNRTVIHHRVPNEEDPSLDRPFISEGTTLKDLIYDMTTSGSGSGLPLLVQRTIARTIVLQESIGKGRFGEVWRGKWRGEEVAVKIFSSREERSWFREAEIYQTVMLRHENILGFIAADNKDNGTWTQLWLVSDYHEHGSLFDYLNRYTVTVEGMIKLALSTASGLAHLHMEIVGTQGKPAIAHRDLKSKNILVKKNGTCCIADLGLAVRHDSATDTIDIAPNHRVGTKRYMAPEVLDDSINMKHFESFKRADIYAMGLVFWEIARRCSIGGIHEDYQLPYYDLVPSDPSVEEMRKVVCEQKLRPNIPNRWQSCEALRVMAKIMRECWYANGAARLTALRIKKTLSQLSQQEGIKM
CLK4 (human), sequence (Q9HAZ1 whole entry, looked up): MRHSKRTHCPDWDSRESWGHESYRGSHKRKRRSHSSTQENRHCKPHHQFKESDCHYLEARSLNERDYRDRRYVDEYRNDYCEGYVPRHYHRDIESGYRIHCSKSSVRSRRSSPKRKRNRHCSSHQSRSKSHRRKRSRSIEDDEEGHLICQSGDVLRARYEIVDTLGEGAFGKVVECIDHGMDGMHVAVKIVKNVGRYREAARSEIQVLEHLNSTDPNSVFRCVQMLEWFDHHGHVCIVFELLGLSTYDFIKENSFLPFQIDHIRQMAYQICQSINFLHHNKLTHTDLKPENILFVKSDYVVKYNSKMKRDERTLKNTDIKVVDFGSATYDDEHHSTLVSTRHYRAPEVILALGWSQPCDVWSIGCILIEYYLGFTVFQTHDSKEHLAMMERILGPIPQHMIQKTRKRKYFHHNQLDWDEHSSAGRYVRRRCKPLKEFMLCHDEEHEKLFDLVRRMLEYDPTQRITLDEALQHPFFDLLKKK
CSNK2A2 (human), sequence (P19784 whole entry, looked up): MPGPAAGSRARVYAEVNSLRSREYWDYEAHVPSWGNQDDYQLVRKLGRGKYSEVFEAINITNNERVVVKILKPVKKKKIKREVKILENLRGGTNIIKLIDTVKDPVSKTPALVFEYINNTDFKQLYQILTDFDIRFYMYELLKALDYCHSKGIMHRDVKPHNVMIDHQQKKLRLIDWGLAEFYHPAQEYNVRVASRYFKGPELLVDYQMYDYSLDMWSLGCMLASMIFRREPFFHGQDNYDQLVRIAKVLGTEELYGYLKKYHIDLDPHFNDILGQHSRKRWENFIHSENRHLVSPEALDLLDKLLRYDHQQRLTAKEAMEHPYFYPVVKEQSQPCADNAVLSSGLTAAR
RPS6KA2 KD1 KD2 (human), sequence (Q15349 whole entry, looked up): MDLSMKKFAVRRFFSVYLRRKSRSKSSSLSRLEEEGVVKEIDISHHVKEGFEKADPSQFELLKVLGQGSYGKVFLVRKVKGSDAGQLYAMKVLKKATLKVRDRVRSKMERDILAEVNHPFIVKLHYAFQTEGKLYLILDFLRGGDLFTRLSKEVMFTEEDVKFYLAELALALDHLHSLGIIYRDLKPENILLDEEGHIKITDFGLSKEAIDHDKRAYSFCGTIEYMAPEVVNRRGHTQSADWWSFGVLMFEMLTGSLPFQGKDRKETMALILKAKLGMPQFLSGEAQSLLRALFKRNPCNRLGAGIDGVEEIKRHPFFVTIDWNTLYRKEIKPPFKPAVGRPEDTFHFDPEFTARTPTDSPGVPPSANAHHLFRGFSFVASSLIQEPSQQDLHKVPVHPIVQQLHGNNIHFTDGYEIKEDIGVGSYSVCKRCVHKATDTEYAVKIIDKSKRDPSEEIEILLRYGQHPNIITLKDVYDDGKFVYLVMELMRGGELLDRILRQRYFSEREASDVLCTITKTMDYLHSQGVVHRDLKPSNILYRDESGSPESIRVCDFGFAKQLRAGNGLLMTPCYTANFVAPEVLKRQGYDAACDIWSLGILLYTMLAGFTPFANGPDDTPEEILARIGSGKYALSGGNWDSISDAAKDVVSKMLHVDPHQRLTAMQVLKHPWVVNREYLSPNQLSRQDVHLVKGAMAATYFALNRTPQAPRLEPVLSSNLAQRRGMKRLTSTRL
DYRK3 (human), sequence (O43781 whole entry, looked up): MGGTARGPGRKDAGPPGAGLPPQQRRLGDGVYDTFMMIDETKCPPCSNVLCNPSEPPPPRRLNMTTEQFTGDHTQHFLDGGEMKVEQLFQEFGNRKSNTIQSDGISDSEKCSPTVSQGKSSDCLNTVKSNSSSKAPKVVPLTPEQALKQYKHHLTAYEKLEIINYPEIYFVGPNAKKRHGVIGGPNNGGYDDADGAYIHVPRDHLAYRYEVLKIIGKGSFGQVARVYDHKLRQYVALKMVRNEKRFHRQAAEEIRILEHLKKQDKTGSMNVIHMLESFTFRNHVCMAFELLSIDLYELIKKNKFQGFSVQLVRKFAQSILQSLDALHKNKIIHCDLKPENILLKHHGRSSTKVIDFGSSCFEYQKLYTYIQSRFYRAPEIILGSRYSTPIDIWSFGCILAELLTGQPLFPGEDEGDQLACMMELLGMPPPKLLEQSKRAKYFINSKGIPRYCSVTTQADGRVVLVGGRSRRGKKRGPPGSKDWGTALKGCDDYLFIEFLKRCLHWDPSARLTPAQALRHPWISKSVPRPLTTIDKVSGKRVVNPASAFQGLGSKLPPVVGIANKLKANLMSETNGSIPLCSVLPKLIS
FER (human), sequence (P16591 whole entry, looked up): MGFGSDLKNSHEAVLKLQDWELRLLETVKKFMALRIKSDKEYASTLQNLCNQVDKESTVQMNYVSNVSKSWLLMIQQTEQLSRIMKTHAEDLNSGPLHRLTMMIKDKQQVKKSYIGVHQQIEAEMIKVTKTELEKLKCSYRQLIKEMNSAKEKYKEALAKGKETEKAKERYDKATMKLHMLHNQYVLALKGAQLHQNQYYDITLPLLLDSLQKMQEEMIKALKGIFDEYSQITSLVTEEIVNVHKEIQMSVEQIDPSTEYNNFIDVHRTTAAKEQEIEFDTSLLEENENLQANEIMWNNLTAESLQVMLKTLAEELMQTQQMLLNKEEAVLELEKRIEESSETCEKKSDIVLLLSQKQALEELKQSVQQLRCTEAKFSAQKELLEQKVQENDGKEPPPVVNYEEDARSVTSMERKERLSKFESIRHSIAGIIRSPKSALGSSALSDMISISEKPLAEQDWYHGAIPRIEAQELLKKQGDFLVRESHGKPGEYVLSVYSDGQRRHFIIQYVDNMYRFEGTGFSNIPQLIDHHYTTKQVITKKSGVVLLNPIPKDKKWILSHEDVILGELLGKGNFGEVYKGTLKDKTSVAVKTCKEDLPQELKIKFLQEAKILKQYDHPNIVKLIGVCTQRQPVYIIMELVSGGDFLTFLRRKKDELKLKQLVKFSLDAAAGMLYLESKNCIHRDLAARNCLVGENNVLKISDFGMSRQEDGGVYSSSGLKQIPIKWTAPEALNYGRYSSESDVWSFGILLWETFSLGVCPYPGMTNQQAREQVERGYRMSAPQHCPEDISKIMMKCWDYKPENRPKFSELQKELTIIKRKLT
MAPK1 (human), sequence (P28482 whole entry, looked up): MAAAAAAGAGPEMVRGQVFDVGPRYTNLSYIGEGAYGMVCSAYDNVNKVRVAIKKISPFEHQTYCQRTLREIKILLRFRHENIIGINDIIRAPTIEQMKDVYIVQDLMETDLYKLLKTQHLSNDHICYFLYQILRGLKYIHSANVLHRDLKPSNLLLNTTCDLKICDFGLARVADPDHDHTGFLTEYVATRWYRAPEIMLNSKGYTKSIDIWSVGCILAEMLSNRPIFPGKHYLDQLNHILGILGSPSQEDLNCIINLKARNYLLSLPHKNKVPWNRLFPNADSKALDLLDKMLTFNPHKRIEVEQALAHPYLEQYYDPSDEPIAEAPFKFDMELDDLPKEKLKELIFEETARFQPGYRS

C[C@@H]1CCN(C(=O)CC#N)C[C@@H]1N(C)c1ncnc2[nH]ccc12
residual activity [1]: 100%
residual activity [2]: 85.8%
residual activity [3]: 96.3%
residual activity [4]: 90.8%
residual activity [5]: 89.5%
residual activity [6]: 92.3%
residual activity [7]: 94.1%
residual activity [8]: 104%
residual activity [9]: 111%
residual activity [10]: 101%
residual activity [11]: 95.4%
residual activity [12]: 96.6%
residual activity [13]: 106%
residual activity [14]: 89%
residual activity [15]: 109%
residual activity [16]: 100%
residual activity [17]: 104%
residual activity [18]: 93.9%
residual activity [19]: 96.3% and 98.6%
residual activity [20]: 99.4%
residual activity [21]: 97.8%
residual activity [22]: 88.6%
residual activity [23]: 91.8%
residual activity [24]: 103%
residual activity [25]: 71.2%
residual activity [26]: 105%
residual activity [27]: 93.6%
residual activity [28]: 102%
residual activity [29]: 98.6%
residual activity [30]: 102%
residual activity [31]: 106%
residual activity [32]: 110%
residual activity [33]: 94.1%
residual activity [34]: 89.7%
residual activity [35]: 95.8%
residual activity [36]: 85.8%
residual activity [37]: 95.1%
residual activity [38]: 99.9%
residual activity [39]: 96.6%
residual activity [40]: 98.8%
residual activity [41]: 103%
residual activity [42]: 83%

c1ccc2c(-c3ccncc3)c[nH]c2c1
residual activity [1]: 100%
residual activity [2]: 101%
residual activity [3]: 101%
residual activity [4]: 96%
residual activity [5]: 99.7%
residual activity [6]: 98.2%
residual activity [7]: 112%
residual activity [8]: 99.3%
residual activity [9]: 101%
residual activity [10]: 101%
residual activity [11]: 95%
residual activity [12]: 94.9%
residual activity [13]: 101%
residual activity [14]: 98.2%
residual activity [15]: 101%
residual activity [16]: 114%
residual activity [17]: 91.6%
residual activity [18]: 127%
residual activity [19]: 100% and 102%
residual activity [20]: 106%
residual activity [21]: 109%
residual activity [22]: 100%
residual activity [23]: 102%
residual activity [24]: 78.9%
residual activity [25]: 94.8%
residual activity [26]: 102%
residual activity [27]: 93.8%
residual activity [28]: 97.1%
residual activity [29]: 101%
residual activity [30]: 99.9%
residual activity [31]: 38.3%
residual activity [32]: 54.3%
residual activity [33]: 81.6%
residual activity [34]: 89%
residual activity [35]: 107%
residual activity [36]: 112%
residual activity [37]: 99.8%
residual activity [38]: 88.4%
residual activity [39]: 101%
residual activity [40]: 103%
residual activity [41]: 98.1%
residual activity [42]: 83.8%
